Where a SMILES comes first, the peptide text is derived from it. [ ]: non-standard residue; d: D form. The star is where a group is joined. Met(O2) = CS(=O)(=O)CC[C@H](N)C(=O)O; hPhe = N[C@@H](CCc1ccccc1)C(=O)O; Cbz = O=C(OCc1ccccc1)*; Boc = CC(C)(C)OC(=O)*
Legend:
HeLa = assay: Cytotoxic activity against HeLa cells using XTT assay.; assay type: functional; details: Homo sapiens, read-out: TC50 (the source's name)
Human rhinovirus sp. = assay: Antiviral activity against human rhinovirus-14 in HeLa cells; assay type: functional, organism-based

Compound | CC50 (HeLa) [µM] | IC50 (Human rhinovirus sp.) [µM]
CS(=O)(=O)CC[C@@H](C=O)NC(=O)[C@H](Cc1ccccc1)NC(=O)OCc1ccccc1 | > 224 | 3.4
NC(=O)CC[C@@H](C=O)NC(=O)[C@H](Cc1ccccc1)NC(=O)OCc1ccccc1 | > 224 | 42
CSCC[C@@H](C=O)NC(=O)[C@H](CC(C)C)NC(=O)[C@H](CC(C)C)NC(C)=O (Ac-Leu-Leu-Met-aldehyde) | 37.1 | 23.7
CC(=O)N[C@@H](CC(C)C)C(=O)N[C@@H](CC(C)C)C(=O)N[C@H](C=O)CCS(C)(=O)=O (Ac-Leu-Leu-[Met(O2)]-aldehyde) | > 224 | 81.9
CSCC[C@@H](C=O)NC(=O)[C@H](Cc1ccccc1)NC(=O)OC(C)(C)C (Boc-Phe-Met-aldehyde) | 65.4 | 84.1
CC(C)(C)OC(=O)N[C@@H](Cc1ccccc1)C(=O)N[C@H](C=O)CCS(C)(=O)=O (Boc-Phe-[Met(O2)]-aldehyde) | 148 | 71.3
CC(C)C[C@H](NC(=O)[C@@H](NC(=O)OC(C)(C)C)C(C)C)C(=O)N[C@@H](Cc1ccccc1)C(=O)N[C@H](C=O)CCC(N)=O (Boc-VLFQ-aldehyde) | 0.6 | 400
CSCC[C@@H](C=O)NC(=O)[C@H](CC(C)C)NC(=O)OCc1ccccc1 (Cbz-Leu-Met-aldehyde) | 83 | 46.8
CC(C)C[C@H](NC(=O)OCc1ccccc1)C(=O)N[C@H](C=O)CCS(C)(=O)=O (Cbz-Leu-[Met(O2)]-aldehyde) | > 224 | 39.3
CSCC[C@@H](C=O)NC(=O)[C@H](Cc1ccccc1)NC(=O)OCc1ccccc1 (Cbz-Phe-Met-aldehyde) | 42.2 | 9.7
CSCC[C@@H](C=O)NC(=O)[C@H](CCc1ccccc1)NC(=O)OCc1ccccc1 (Cbz-[hPhe]-Met-aldehyde) | 13.5 | 20.3
CS(=O)(=O)CC[C@@H](C=O)NC(=O)[C@H](CCc1ccccc1)NC(=O)OCc1ccccc1 (Cbz-[hPhe]-[Met(O2)]-aldehyde) | 162 | 81.2
CS(=O)(=O)CC[C@@H](C=O)NC(=O)C(Cc1ccccc1)NC(=O)OCc1ccccc1 (single isomer, unassigned) | > 224 | > 224
CCCC[C@@H](C=O)NC(=O)[C@H](CC(C)C)NC(=O)OCc1ccccc1 [CALPEPTIN] | 22.1 | 17.7
CC(=O)N[C@@H](CC(C)C)C(=O)N[C@@H](CC(C)C)C(=O)N[C@H](C=O)CCCNC(=N)N [LEUPEPTIN] | > 224 | > 224

From ChEMBL document CHEMBL1128943, “Small peptidic aldehyde inhibitors of human rhinovirus 3C protease” (Bioorg Med Chem Lett, 1996)
